Data published in patent US6391566B1, “Ionotropic human glutamate receptor subunit NR3” (NPS Allelix Corporation, priority 1992, dated 2002).

Columns and labels:
Format in all cases: cell-based
[1] = target: T1, NR3-1/NMDAR1-3C heteromeric complex (Homo sapiens, UniProt Q05586+Q13224); test: Whole-cell voltage-clamp recording of NMDA-evoked currents in transiently transfected HEK293 cells (heteromeric expression); conditions: 60 μM NMDA
T1 construct: expressed in transfected cells; host or cells: HEK293 (transient, lipofectamine)
T1 sequence (Q13224 27-1484, other chains not shown): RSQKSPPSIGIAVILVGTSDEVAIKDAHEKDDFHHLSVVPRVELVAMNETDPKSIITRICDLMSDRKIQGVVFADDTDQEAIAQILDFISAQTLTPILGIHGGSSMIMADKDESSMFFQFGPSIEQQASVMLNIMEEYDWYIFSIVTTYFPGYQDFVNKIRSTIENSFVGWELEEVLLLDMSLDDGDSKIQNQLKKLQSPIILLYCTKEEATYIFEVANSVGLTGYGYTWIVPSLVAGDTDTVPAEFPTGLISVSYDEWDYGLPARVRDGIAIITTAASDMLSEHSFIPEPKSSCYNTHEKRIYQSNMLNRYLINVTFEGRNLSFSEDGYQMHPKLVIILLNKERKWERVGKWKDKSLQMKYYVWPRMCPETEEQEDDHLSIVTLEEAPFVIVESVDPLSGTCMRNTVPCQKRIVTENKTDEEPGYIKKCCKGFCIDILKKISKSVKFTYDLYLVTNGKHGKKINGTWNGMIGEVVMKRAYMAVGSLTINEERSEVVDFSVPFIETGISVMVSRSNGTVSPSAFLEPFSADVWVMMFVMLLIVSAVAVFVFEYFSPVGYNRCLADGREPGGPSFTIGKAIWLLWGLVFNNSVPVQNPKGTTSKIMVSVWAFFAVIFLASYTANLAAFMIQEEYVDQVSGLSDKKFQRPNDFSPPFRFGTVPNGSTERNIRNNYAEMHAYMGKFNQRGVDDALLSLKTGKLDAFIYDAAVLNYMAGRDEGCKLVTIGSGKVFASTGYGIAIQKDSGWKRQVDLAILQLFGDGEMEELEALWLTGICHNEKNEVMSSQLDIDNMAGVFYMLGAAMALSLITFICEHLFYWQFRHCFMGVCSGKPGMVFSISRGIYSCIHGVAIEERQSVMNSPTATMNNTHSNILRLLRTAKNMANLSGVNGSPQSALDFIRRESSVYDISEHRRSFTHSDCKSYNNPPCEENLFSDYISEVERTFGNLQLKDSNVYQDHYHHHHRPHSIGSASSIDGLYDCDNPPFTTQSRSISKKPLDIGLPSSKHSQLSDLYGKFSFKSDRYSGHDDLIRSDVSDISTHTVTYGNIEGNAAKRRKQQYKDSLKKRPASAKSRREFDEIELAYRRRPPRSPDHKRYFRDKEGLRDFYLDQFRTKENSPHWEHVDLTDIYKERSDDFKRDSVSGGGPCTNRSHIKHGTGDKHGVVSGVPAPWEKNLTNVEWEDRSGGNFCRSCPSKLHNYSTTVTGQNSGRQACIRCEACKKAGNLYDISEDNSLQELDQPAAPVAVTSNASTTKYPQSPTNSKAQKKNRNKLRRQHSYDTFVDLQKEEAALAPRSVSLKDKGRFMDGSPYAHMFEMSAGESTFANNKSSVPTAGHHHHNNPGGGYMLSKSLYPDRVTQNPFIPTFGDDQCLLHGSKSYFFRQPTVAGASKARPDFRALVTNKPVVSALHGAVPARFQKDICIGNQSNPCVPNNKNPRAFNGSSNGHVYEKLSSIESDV
Description: (§1) For transient expression, HEK293 cells were transfected with approximately 0.4 μg DNA (as pcDNA1-Amp/hNR3 or pcDNA1-Amp/hNR1-3C) per 10^5 HEK293 cells, by lipofectamine-mediated DNA transfection according to the manufacturer's (Life Technologies Inc., Gaithersburg, Md.) specifications. In coexpression experiments, i.e. for heteromeric expression of NR3-1 and NMDAR1-3C, the HEK293 cells were similarly transfected with 0.8 μg of a DNA mixture containing pcDNA1-Amp/hNR3 and pcDNA1-Amp/hNR1-3C. Briefly, HEK293 cells were plated at a density of 10^5 cells/dish and then grown for 24 hours in 10% FBS-supplemented MEM medium (Life Technologies Inc., Gaithersburg, Md.). The medium was then removed and cells were washed in OPTI-MEM I medium (Life Technologies Inc.) lacking FBS, prior to transfection. A transfection solution (100 μl ) containing 2-4 μl of lipofectamine and DNA was then applied to the cells. After incubation for 4 hours at 37° C., cells were washed as previously described and then allowed to grow for 48 hours in 10% FBS-supplemented MEM medium containing 50 μM DL-AP5 (2-amino-5-phosphonopentanoic acid) and 50 μM 7-chlorokyneurinic acid prior to electrophysiological recording. […]

[2] = target: T2, NMDAR1-3C (Homo sapiens, UniProt Q05586); test: Whole-cell voltage-clamp recording of NMDA-evoked currents in HEK293 cells transfected with NMDAR1-3C alone; conditions: 60 μM NMDA; HEK293 cells transiently transfected with NMDAR1-3C alone; FIG. 10
T2 construct: expressed in transfected cells; host or cells: HEK293 (transient, lipofectamine)
Description: as §1

[3] = target: T3, NR3 (Homo sapiens, UniProt Q13224); test: Whole-cell voltage-clamp recording of NMDA-evoked currents in HEK293 cells transfected with NR3 alone; conditions: 60 μM NMDA; HEK293 cells transiently transfected with NR3 alone; FIG. 10
T3 construct: expressed in transfected cells; host or cells: HEK293 (transient, lipofectamine)
T3 sequence (Q13224 27-1484): as the sequence (Q13224 27-1484, other chains not shown) above
Description: as §1

Compound | block of NMDA-induced currents ([1]; 1 mM MgCl2, HEK293 cells transfected with both NR3-1 and NMDAR1-3C) | NMDA-induced depolarizations ([1]; HEK293 cells transiently transfected with both NR3-1 and NMDAR1-3C, FIG. 10) | NMDA-induced depolarizations [2] | NMDA-induced depolarizations [3]
[Cl-].[Cl-].[Mg+2] [MgCl2] | blocked |  |  | 
CN[C@H](CC(=O)O)C(=O)O [NMDA, N-methyl-D-aspartate] |  | NMDA-induced depolarizations were, however, observed | No NMDA-induced depolarizations were observed | No NMDA-induced depolarizations were observed
